Test results from patent US20100266569A1, “PROSTATIC ACID PHOSPHATASE FOR THE TREATMENT OF PAIN” (priority 2007, published 2010).
Entries after “also recorded” stand apart in the source; their conditions may differ.

Experiments:
[1] = system: wild-type C57BL/6 male mice; test: Noxious thermal sensitivity, Hargreaves method (paw withdrawal latency to radiant heat) after i.t. injection; assay type: in vivo, mouse
Method: Behavior. C57BL/6 male mice, 2-3 months old, were purchased from Jackson Laboratories (Bar Harbor, Maine, United States of America) for all behavioral experiments involving PAP protein injections. All mice were acclimated to the testing room, equipment and experimenter for one day before behavioral testing. The experimenter was blind to genotype and drug treatment during behavioral testing.
Thermal sensitivity was measured by heating one hindpaw with a Plantar Test apparatus (IITC) following the Hargreaves method (Hargreaves et al., 1988). The radiant heat source intensity was calibrated so that a paw withdrawal reflex was evoked in ˜10 seconds, on average, in wild-type C57BL/6 mice. Cutoff time was 20 s. One measurement was taken from each paw per day to determine paw withdrawal latency. To perform the tail immersion assay, mice were gently restrained in a towel and the distal one-third of the tail was immersed in 46.5° C. water. Latency to withdrawal the tail was measured once per mouse. Mechanical sensitivity was measured using semi-rigid tips attached to an Electronic von Frey apparatus (IITC) as described elsewhere (Cunha et al., 2004; Inoue et al., 2004). Three measurements were taken from each paw (separated at 5 min. intervals) then averaged to determine paw withdrawal threshold in grams.
Intrathecal injections. hPAP, bPAP and vehicle controls were injected into the lumbar region of unanesthetized mice as described (Fairbanks, 2003).
Intrathecal injection was chosen because PAP protein is unlikely to reach spinal cord tissue if injected intraperitoneally.

[2] = system: wild-type C57BL/6 male mice; assay type: in vivo, mouse
Excerpt: Signs of immune and microglial activation can be monitored using molecular markers.

[3] = target: T1, A1-adenosine receptor (A1R) (Mus musculus, UniProt Q60612); test: Antagonism of hPAP anti-nociception by the A1R antagonist CPX, CFA model; assay type: in vivo
T1 construct: endogenous in cells; host or cells: wild-type C57BL/6 mice, in vivo (CPX 1 mg/kg i.p.)
T1 sequence (Q60612 1-326): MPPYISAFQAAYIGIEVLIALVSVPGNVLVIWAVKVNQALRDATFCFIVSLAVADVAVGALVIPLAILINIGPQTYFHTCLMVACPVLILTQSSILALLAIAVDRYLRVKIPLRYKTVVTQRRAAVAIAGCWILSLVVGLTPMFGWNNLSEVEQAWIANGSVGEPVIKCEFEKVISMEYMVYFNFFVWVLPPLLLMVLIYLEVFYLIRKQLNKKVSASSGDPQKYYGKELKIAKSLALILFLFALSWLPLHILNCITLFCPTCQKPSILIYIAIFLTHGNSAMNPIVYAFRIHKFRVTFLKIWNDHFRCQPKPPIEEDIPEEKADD
Method: Wild-type mice were tested for noxious thermal (FIG. 29A) and mechanical (FIG. 29B) sensitivity before (baseline, BL) and following injection of Complete Freund's Adjuvant (CFA-arrow) into one hindpaw (inflamed paw, open circles or dark squares). The non-inflamed hindpaw served as control (shaded circles or squares). All mice were injected with active hPAP (hPAP-arrow; 250 mU, i.t.). Two days later, half the mice were injected with vehicle (CPXN-arrow, circles; intraperitoneal (i.p.); 1 h before behavioral measurements) while the other half were injected with 8-cyclopentyl-1,3-dipropylxanthine (CPX/V-arrow, squares; 1 mg/kg i.p.; 1 h before behavioral measurements). […] All data are presented as means±SEM.
The responses of wild-type and A1R^−/− mice were also tested using the CFA chronic inflammatory pain model and the SNI neuropathic pain model.

PAP (bPAP, mPAP) = test: Fluorometric acid phosphatase assay (DiFMUP, EnzChek); assay type: biochemical, bovine; mouse; settings: L-tartrate 10 mM
Method: FIG. 3 is a set of bar graphs showing a fluorometric assay to quantify acid phosphatase activity. […] Right-hand Bar Graph: Mouse prostatic acid phosphatase (mPAP) assayed from transfected cell lysates. Activity is reduced by the PAP inhibitor L-tartrate (10 mM). These assays were performed following the manufacturers protocol (EnzChek Assay, Invitrogen, Carlsbad, Calif., United States of America) and quantified using a fluorescent microplate reader.
A way to quantify PAP activity was needed so that reproducible amounts of active PAP protein could be added to cultured cells or injected into live mice for the experiments described below. To accomplish this, two well-established methods were tested for measuring PAP activity: 1) a colorimetric assay using para-nitrophenyl phosphate (p-NPP) hydrolysis; and 2) a fluorometric assay using difluoro-4-methylumbelliferyl phosphate (DiFMUP) hydrolysis (commercially available as the EnzChek Acid Phosphatase kit from Invitrogen, Carlsbad, Calif., United States of America). Based on direct comparisons, it was determined that the fluorometric assay was much more sensitive than p-NPP for quantification of PAP activity. […] This fluorometric assay can thus be used to quantify phosphatase activity of pure PAP protein and PAP from cell lysates.

Rat1 cells = test: LPA-evoked calcium signaling (Fura2-AM) with LPA pre-incubated with bPAP; assay type: cell-based, rat; settings: 1 μM LPA incubated 1.5 hr at 37° C. with or without 0.2 mU bPAP, applied 1 minute
Method: (“a” in FIG. 4). In parallel, a second tube was incubated containing 1 μM LPA (without bPAP) for 1.5 hr at 37° C. (“b” in FIG. 4). Rat1 cells were loaded with the calcium-sensitive dye Fura2-acetoxymethyl (AM) ester (Dong et al., 2001), and (LPA+bPAP) applied to these cells for 1 minute (see “a” in FIG. 4). Following a brief washout period, (LPA) was applied to the cells for 1 minute (see “b” in FIG. 4).

[4] = system: wild-type C57BL/6 male mice; test: LPA-evoked sensitization in vivo (i.t. LPA with or without bPAP); settings: 1 nmol LPA i.t., alone or incubated with 20 μU bPAP 10 min at 37° C.
Method: First, mechanical sensitivity was measured with an electronic von Frey apparatus (IITC). Then, thermal sensitivity was measured using the Hargreaves method (radiant heating of hindpaw; IITC Plantar Test Apparatus).

## CN1CC[C@]23c4c5ccc(O)c4O[C@H]2[C@@H](O)C=C[C@H]3[C@H]1C5.O=S(=O)(O)O [morphine, morphine sulfate]
[1]; single i.t. injection, highest doses
  increase in paw withdrawal latency above baseline: 62.2%±9.9%
[2]; mouse, in vivo
  side effects: Side-effects were observed at the two highest doses

## CCCn1c(=O)c2[nH]c(C3CCCC3)nc2n(CCC)c1=O [CPX, 8-cyclopentyl-1,3-dipropylxanthine]
[3]; 1 mg/kg i.p. on day 9
  effect on thermal or mechanical sensitivity after hPAP effects wore off: did not affect thermal or mechanical sensitivity
[3]; 1 mg/kg i.p., two days after hPAP 250 mU i.t., 1 h before behavioral measurements
  effect on anti-nociceptive effects of hPAP: transiently reversed the anti-nociceptive effects of hPAP in control and inflamed hindpaws; also recorded: transiently antagonized all anti-nociceptive effects of hPAP

## OC[C@H]1O[C@@H](n2cnc3c(NC4CCCC4)ncnc32)[C@H](O)[C@@H]1O [CPA, N^6-cyclopentyladenosine]
[1]; i.t., compared with hPAP
  duration of effect on paw withdrawal latency, in words: short-term effects (lasting hours not days)
[1]; uninjured wild-type mice, i.t. injection (bPAP 20 μU; hPAP 1.3 mg/mL or 250 mU; ALP 25,000 mU)
  effect on noxious thermal sensitivity / paw withdrawal latency: dose-dependent increases in paw withdrawal latency
[2]; two highest i.t. doses (dose range 0.0005 nmol-5 nmol)
  motor paralysis: transient paralysis; also recorded: fore- and hindlimb paralysis

## O=C(O)[C@H](O)[C@@H](O)C(=O)O [L-tartrate]
PAP (bPAP, mPAP)
  effect on PAP phosphatase activity: inhibited; also recorded: reduced

## lysophosphatidic acid [LPA]
Rat1 cells
  change of intracellular calcium levels: dramatically changed
[4]
  behavioral sensitization (mechanical allodynia, thermal hyperalgesia): caused long-lasting mechanical allodynia and thermal hyperalgesia
